Several values for one entry are separate records, joined by “and”; a condition that tells them apart may be missing. Identical values can stand only once.
Columns and labels:
Type in all cases: in vivo
[1] = system: Triticum aestivum (durum wheat), TRZDU; test: Greenhouse postemergence safening trial, visual injury on durum wheat
Protocol: (§1) Greenhouse Trial Methodology-Evaluation of Postemergence Herbicidal […] in Crops […] When required to ensure good germination and healthy plants, a fungicide treatment and/or other chemical or physical treatment was applied. The plants were grown for 7-36 days (d) in a greenhouse with an approximate 14-hour (h) photoperiod which was maintained at about 23° C. during the day and 22° C. during the night. Nutrients and water were added on a regular basis and supplemental lighting was provided with overhead metal halide 1000-Watt lamps as necessary. The plants were employed for testing when they reached the second or third true leaf stage. Emulsifiable concentrates of each of each pyridine carboxylate herbicide (Compound A or Compound B) were prepared at 100 grams acid equivalent per liter (g ae/L). […] The concentrated stock solutions were further diluted with an aqueous mixture of 1.25% […] or MSO® Concentrate with LECI-TECH® to obtain stock solutions at reduced application rates for each herbicide. Spray solutions of the herbicide combinations (Compound A or Compound B plus safener) were prepared by adding weighed amounts or aliquots of the safener to the stock solutions of Compound A or Compound B to form 12-mL spray solutions in two-way combinations. […] Control plants were sprayed in the same manner with the solvent blank. All herbicide (component a) application rates are given as “g ae/ha” and all safener (component b) application rates are given as “g ai/ha.” The treated plants and control plants were placed in a greenhouse as described above and watered by sub-irrigation to prevent wash-off of the test compounds.

[2] = system: Hordeum vulgare (winter barley), HORVW; test: Greenhouse postemergence safening trial, visual injury on winter barley
Protocol: as §1

[3] = system: pigweed (AMARE, Amaranthus retroflexus); test: Greenhouse postemergence trial, visual injury on pigweed
From the text: (§2) Greenhouse Trial Methodology—Evaluation of Postemergence Herbicidal Safening in Crops
(§3) Seeds of the desired test plant species were planted in a 90:10% v/v (volume/volume) mixture of PRO-MIX® BX (Premier Tech Horticulture, Quakertown, PA, USA) and PROFILE® GREENS GRADE™ (Profile Products LLC, Buffalo Grove, IL, USA) planting mixture, which typically has a pH of 5.2 to 6.2 and an organic matter content of at least 50 percent, in plastic pots with a surface area of 103.2 square centimeters (cm^2). When required to ensure good germination and healthy plants, a fungicide treatment and/or other chemical or physical treatment was applied. The plants were grown for 7-36 days (d) in a greenhouse with an approximate 14-hour (h) photoperiod which was maintained at about 23° C. during the day and 22° C. during the night. Nutrients and water were added on a regular basis and supplemental lighting was provided with overhead metal halide 1000-Watt lamps as necessary. The plants were employed for testing when they reached the second or third true leaf stage.
(§4) Emulsifiable concentrates of each of each pyridine carboxylate herbicide (Compound A or Compound B) were prepared at 100 grams acid equivalent per liter (g ae/L). An aliquot of each emulsifiable concentrate was placed in a 25 mL glass vial and diluted with an aqueous mixture of 1.25% (v/v) ACTIROB® B esterified rapeseed oil (Bayer Crop Science, Research Triangle Park, NC, USA) or MSO® Concentrate with LECI-TECH® methylated soybean oil (Loveland Products, Loveland, CO, USA) to obtain concentrated stock solutions at the highest application rate for each herbicide, based upon a 12 milliliter (mL) application volume at a rate of 187 liters per hectare (L/ha). The concentrated stock solutions were further diluted with an aqueous mixture of 1.25% v/v ACTIROB® B or MSO® Concentrate with LECI-TECH® to obtain stock solutions at reduced application rates for each herbicide. Spray solutions of the herbicide combinations (Compound A or Compound B plus safener) were prepared by adding weighed amounts or aliquots of the safener to the stock solutions of Compound A or Compound B to form 12-mL spray solutions in two-way combinations.
(§5) The spray solutions were applied to the plant material with an overhead Mandel track sprayer equipped with 8002E nozzles calibrated to deliver 187 L/ha over an application area of 0.503 square meters (m^2) at a spray height of 18 inches (43 centimeters (cm)) above the average plant canopy. Control plants were sprayed in the same manner with the solvent blank. All herbicide (component a) application rates are given as “g ae/ha” and all safener (component b) application rates are given as “g ai/ha.”
(§6) The treated plants and control plants were placed in a greenhouse as described above and watered by sub-irrigation to prevent wash-off of the test compounds. After 20-22 d, the condition of the test plants as compared with that of the control plants was determined visually and scored on a scale of 0 to 100 percent where 0 corresponds to no injury and 100 corresponds to complete kill.

[4] = system: nutsedge (CYPES, Cyperus esculentus); test: Greenhouse postemergence trial, visual injury on nutsedge
From the text: as §2, §3, §4, §5, §6

[5] = system: velvetleaf (ABUTH, Abutilon theophrasti); test: Greenhouse postemergence trial, visual injury on velvetleaf; conditions: Table 19
From the text: as §2, §3
as §4, with “combinations. […]” for “combinations.”
as §6

[6] = system: blackgrass (ALOMY, Alopecurus myosuroides); test: Greenhouse postemergence trial, visual injury on blackgrass; conditions: Table 19
From the text: as §2, §3
as §4, with “combinations. […]” for “combinations.”
as §6

[7] = system: common lambsquarters (CHEAL, Chenopodium album L.); test: Greenhouse postemergence trial, visual injury on common lambsquarters; conditions: Table 19
From the text: as §2, §3
as §4, with “combinations. […]” for “combinations.”
as §6

[8] = system: Canada thistle (CIRAR, Cirsium arvense); test: Greenhouse postemergence trial, visual injury on Canada thistle; conditions: Table 19
From the text: as §2, §3
as §4, with “combinations. […]” for “combinations.”
as §6

[9] = system: kochia (KCHSC, Kochia scoparia); test: Greenhouse postemergence trial, visual injury on kochia; conditions: Table 19
From the text: as §2, §3
as §4, with “combinations. […]” for “combinations.”
as §6

[10] = system: Italian ryegrass (LOLMU, Lolium multiflorum); test: Greenhouse postemergence trial, visual injury on Italian ryegrass; conditions: Table 19
From the text: as §2, §3
as §4, with “combinations. […]” for “combinations.”
as §6

[11] = system: Johnson grass (SORHA, Sorghum halepense); test: Greenhouse postemergence trial, visual injury on Johnson grass; conditions: Table 19
From the text: as §2, §3
as §4, with “combinations. […]” for “combinations.”
as §6

[12] = system: wild pansy (VIOTR, Viola tricolor); test: Greenhouse postemergence trial, visual injury on wild pansy; conditions: Table 19
From the text: as §2, §3
as §4, with “combinations. […]” for “combinations.”
as §6

[13] = Compound A 40 g/ha alone, Table 14
[14] = Compound A 20 g/ha alone, Table 19
[15] = Compound A 40 g/ha alone, Table 17
[16] = Compound A 40 g/ha alone, Table 18
[17] = CQC-mexyl 40 g/ha alone, Table 14
[18] = CQC-mexyl 20 g/ha alone, Table 17
[19] = CQC-mexyl 20 g/ha alone, Table 19
[20] = CQC-mexyl 40 g/ha alone, Table 17
[21] = CQC-mexyl 40 g/ha alone, Table 19
[22] = CQC-mexyl 80 g/ha alone, Table 17
[23] = CQC-mexyl 80 g/ha alone, Table 19
[24] = CQC-mexyl 120 g/ha alone, Table 17

N#CCOC(=O)c1nc(-c2ccc3cc[nH]c3c2F)c(F)c(N)c1Cl [Compound A, cyanomethyl 4-amino-3-chloro-5-fluoro-6-(7-fluoro-1H-indol-6-yl)pyridine-2-carboxylate]
% visual injury, Ob [1, 13]: 45% | % visual injury, Ob ([1]; herbicide alone 40 g/ha): 45% | % visual injury, Ob ([2]; Compound A 20 g/ha alone, Table 15): 15% | % visual injury Δ [2, 13]: 0% | % visual injury, Ob [2, 13]: 40% | % visual injury, Ob ([2]; Compound A 40 g/ha alone, Table 16): 30% | % visual injury, Ob ([2]; herbicide alone 20 g/ha): 15% | % visual injury Δ ([2]; herbicide alone 40 g/ha): 0% | % visual injury, Ob ([2]; herbicide alone 40 g/ha): 40% and 30% | % visual injury, Ob [3, 14]: 93% | % visual injury, Ob [3, 15]: 100% | % visual injury, Ob [3, 16]: 100% | % visual injury, Ob [4, 14]: 30% | % visual injury, Ob [4, 15]: 73% | % visual injury, Ob [4, 16]: 73% | % visual injury, Ob ([5]; Compound A 20 g/ha alone): 95% | % visual injury, Ob ([6]; Compound A 20 g/ha alone): 0% | % visual injury, Ob ([7]; Compound A 20 g/ha alone): 88% | % visual injury, Ob ([8]; Compound A 20 g/ha alone): 95% | % visual injury, Ob ([9]; Compound A 20 g/ha alone): 97% | % visual injury, Ob ([10]; Compound A 20 g/ha alone): 5% | % visual injury, Ob ([11]; Compound A 20 g/ha alone): 0% | % visual injury, Ob ([12]; Compound A 20 g/ha alone): 30%

CCCCCC(C)OC(=O)COc1ccc(Cl)c2cccnc12 (stereo not drawn) [CQC-mexyl, cloquintocet-mexyl]
% visual injury, Ob [1, 17]: 0% | % visual injury, Ob ([1]; safener alone 40 g/ha): 0% | % visual injury, Ob ([2]; CQC-mexyl 5 g/ha alone, Table 15): 0% | % visual injury, Ob ([2]; CQC-mexyl 10 g/ha alone, Table 15): 0% | % visual injury, Ob ([2]; CQC-mexyl 10 g/ha alone, Table 16): 0% | % visual injury, Ob ([2]; CQC-mexyl 20 g/ha alone, Table 15): 0% | % visual injury, Ob ([2]; CQC-mexyl 20 g/ha alone, Table 16): 0% | % visual injury Δ [2, 17]: 0% | % visual injury, Ob [2, 17]: 0% | % visual injury, Ob ([2]; CQC-mexyl 40 g/ha alone, Table 15): 0% | % visual injury, Ob ([2]; CQC-mexyl 40 g/ha alone, Table 16): 0% | % visual injury, Ob ([2]; CQC-mexyl 80 g/ha alone, Table 16): 0% | % visual injury Δ ([2]; safener alone 40 g/ha): 0% | % visual injury, Ob ([2]; safener alone 40 g/ha): 0% | % visual injury, Ob [3, 18]: 0% | % visual injury, Ob [3, 19]: 0% | % visual injury, Ob [3, 20]: 0% | % visual injury, Ob [3, 21]: 0% | % visual injury, Ob [3, 22]: 0% | % visual injury, Ob [3, 23]: 0% | % visual injury, Ob [3, 24]: 0% | % visual injury, Ob [4, 18]: 0% | % visual injury, Ob [4, 19]: 0% | % visual injury, Ob [4, 20]: 0% | % visual injury, Ob [4, 21]: 0% | % visual injury, Ob [4, 22]: 0% | % visual injury, Ob [4, 23]: 0% | % visual injury, Ob [4, 24]: 0% | % visual injury, Ob ([5]; CQC-mexyl 20 g/ha alone): 0% | % visual injury, Ob ([5]; CQC-mexyl 40 g/ha alone): 0% | % visual injury, Ob ([5]; CQC-mexyl 80 g/ha alone): 0% | % visual injury, Ob ([6]; CQC-mexyl 20 g/ha alone): 0% | % visual injury, Ob ([6]; CQC-mexyl 40 g/ha alone): 0% | % visual injury, Ob ([6]; CQC-mexyl 80 g/ha alone): 0% | % visual injury, Ob ([7]; CQC-mexyl 20 g/ha alone): 0% | % visual injury, Ob ([7]; CQC-mexyl 40 g/ha alone): 0% | % visual injury, Ob ([7]; CQC-mexyl 80 g/ha alone): 0% | % visual injury, Ob ([8]; CQC-mexyl 20 g/ha alone): 0% | % visual injury, Ob ([8]; CQC-mexyl 40 g/ha alone): 0% | % visual injury, Ob ([8]; CQC-mexyl 80 g/ha alone): 0% | % visual injury, Ob ([9]; CQC-mexyl 20 g/ha alone): 0% | % visual injury, Ob ([9]; CQC-mexyl 40 g/ha alone): 0% | % visual injury, Ob ([9]; CQC-mexyl 80 g/ha alone): 0% | % visual injury, Ob ([10]; CQC-mexyl 20 g/ha alone): 0% | % visual injury, Ob ([10]; CQC-mexyl 40 g/ha alone): 0% | % visual injury, Ob ([10]; CQC-mexyl 80 g/ha alone): 0% | % visual injury, Ob ([11]; CQC-mexyl 20 g/ha alone): 0% | % visual injury, Ob ([11]; CQC-mexyl 40 g/ha alone): 0% | % visual injury, Ob ([11]; CQC-mexyl 80 g/ha alone): 0% | % visual injury, Ob ([12]; CQC-mexyl 20 g/ha alone): 0% | % visual injury, Ob ([12]; CQC-mexyl 40 g/ha alone): 0% | % visual injury, Ob ([12]; CQC-mexyl 80 g/ha alone): 0%

Source: patent US12310364B2, “Safened compositions comprising pyridine carboxylate herbicides and cloquintocet” (Corteva Agriscience LLC, priority 2018, dated 2025)
